Laboratory results published in patent US20240262842A1, “SMALL MOLECULE INHIBITORS OF KRAS G12C MUTANT” (Merck Sharp & Dohme LLC, priority 2021, published 2024).
Where two headings read alike, the source gives them in different places.

What was measured:
[1] = target: biotinylated KRAS G12C protein (GMP-PNP loaded) and GST-tagged Ras binding domain of c-RAF (Homo sapiens, UniProt P01116, C118S/C51S/C80L/G12C); assay: RAS:RAF-RBD binding assay (TR-FRET); conditions: 30-minute incubation of compound with KRAS G12C before RAF-RBD; Table 4; read-out: IC50
[2] = target: T1, interaction between GMPPNP-bound recombinant K-Ras4B G12C mutant protein and cRAF RAS-binding domain (cRAF-RBD) (Homo sapiens, UniProt P01116, G12C); assay: Inhibitory activity on interaction between KRAS G12C and cRAF (Alpha technology); conditions: GMPPNP-bound KRAS G12C incubated with compound 25° C. 1 hour, read-out: IC50
T1 construct: His-tag (N)
How it was run: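 His-tagged K-Ras4B G12C (aa 1-169), GMPPNP-loaded, preincubated with compound 1 h at 25° C in pH 7.5 Tris buffer with MgCl2, TCEP, Tween 20. cRAF-RBD (aa 50-132) and Alpha reagents then added for 1.5 h; Alpha signal normalised to DMSO (0%) and GDP-bound KRAS (100%); IC50 from dose titration.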

MIA PaCa-2 cells = assay: Growth inhibition activity on KRAS-G12C mutant cell line (CellTiter-Glo 3D); type: cell-based, human; conditions: MIA PaCa-2, 3-day culture with compound
How it was run: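 MIA PaCa-2 cells in RPMI1640 with 10% FBS, U-bottom wells, cultured 1 day before compound (0.2% DMSO final), then 3 days at 37 °C, 5% CO2. Viability by CellTiter-Glo 3D luminescence; growth inhibition versus untreated wells gives IC50 (nM).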

[3] = Homo sapiens, MIA PaCa-2, 72 h, Table 3-1

| Molecule | IC50 [1] [nM] | IC50 ([2]; Table 2-1) [nM] | other results |
| --- | --- | --- | --- |
| Cc1nc2c3c(c(C(F)(F)F)cc2n1C)-c1cccn2c(C(=O)c4cc(F)c(NC(=O)/C(F)=C/CN[C@@H]5CCOC5)c(F)c4)cc(c12)CCO3 (atropisomer, axis not shown) [Example 252, (R,Z)-N-(4-(9,10-dimethyl-7-(trifluoromethyl)-13,14-dihydro-9H-imidazo[4″,5″:5′,6′]benzo[1′,2′:2,3]oxocino[4,5,6-hi]indolizine-2-carbonyl)-2,6-difluorophenyl)-2-fluoro-4-((tetrahydrofuran-3-yl)amino)but-2-enamide] | 25.7 |  |  |
| COCc1nc2c3c(c(OC)cc2n1C)-c1cccn2c(C(=O)c4cc(F)c(NC(=O)/C=C/CNCC5(F)CC5)c(F)c4)cc(c12)CCN3C (atropisomer, axis not shown) [Example 287, (E)-N-(2,6-difluoro-4-(7-methoxy-10-(methoxymethyl)-9,12-dimethyl-9,12,13,14-tetrahydroimidazo[4″,5″:5′,6′]benzo[1′,2′:2,3]azocino[4,5,6-hi]indolizine-2-carbonyl)phenyl)-4-(((1-fluorocyclopropyl)methyl)amino)but-2-enamide] | 16.6 |  |  |
| COCc1nc2c3c(c(OC)cc2n1C)-c1cccn2c(C(=O)c4cc(F)c(NC(=O)/C=C/[C@@H]5C[C@@H](F)CN5)c(F)c4)cc(c12)CCN3C (atropisomer, axis not shown) [Example 293, (E)-N-(2,6-difluoro-4-(7-methoxy-10-(methoxymethyl)-9,12-dimethyl-9,12,13,14-tetrahydroimidazo[4″,5″:5′,6′]benzo[1′,2′:2,3]azocino[4,5,6-hi]indolizine-2-carbonyl)phenyl)-3-((2S,4R)-4-fluoropyrrolidin-2-yl)acrylamide] | 16 |  |  |
| Cc1nc2c3c(c(C(F)(F)F)cc2n1C)-c1cccn2c(C(=O)c4cc(F)c(NC(=O)/C(F)=C/CNC5(C)CCOCC5)c(F)c4)cc(c12)CCO3 (atropisomer, axis not shown) [Example 296, (Z)-N-(4-(9,10-dimethyl-7-(trifluoromethyl)-13,14-dihydro-9H-imidazo[4″,5″:5′,6′]benzo[1′,2′:2,3]oxocino[4,5,6-hi]indolizine-2-carbonyl)-2,6-difluorophenyl)-2-fluoro-4-((4-methyltetrahydro-2H-pyran-4-yl)amino)but-2-enamide] | 14.8 |  |  |
| Cc1nc2c3c(c(C(F)(F)F)cc2n1C)-c1cccn2c(C(=O)c4cc(F)c(NC(=O)/C=C/C5CCCN5)c(F)c4)cc(c12)CCO3 (single isomer, unassigned) [Example 250, (E)-N-(4-(9,10-dimethyl-7-(trifluoromethyl)-13,14-dihydro-9H-imidazo-[4″,5″:5′,6′]benzo[1′,2′: 2,3]oxocino[4,5,6-hi]-dolizine-2-carbonyl)-2,6-difluorophenyl)-3-(pyrrol-idin-2-yl)acrylamide] | 54.9 |  |  |
| Cc1nc2c3c(c(C(F)(F)F)cc2n1C)-c1cccn2c(C(=O)c4cc(F)c(NC(=O)/C=C/C5CCCN5)c(F)c4)cc(c12)CCO3 (single isomer, unassigned) [Example 251, (E)-N-(4-(9,10-dimethyl-7-(trifluoromethyl)-13,14-dihydro-9H-imidazo-[4″,5″:5′,6′]benzo[1′,2′: 2,3]oxocino[4,5,6-hi]-indolizine-2-carbonyl)-2,6-difluorophenyl)-3-(pyrrolidin-2-yl)acryl-amide] | 16.7 |  |  |
| Cc1nc2c3c(c(C(F)(F)F)cc2n1C)-c1cccn2c(C(=O)c4cc(F)c(NC(=O)/C=C/CN5CCC[C@@]5(C)C(C)O)c(F)c4)cc(c12)CCO3 (single isomer, unassigned) [Example 258] | 6.69 |  |  |
| Cc1nc2c3c(c(C(F)(F)F)cc2n1C)-c1cccn2c(C(=O)c4cc(F)c(NC(=O)/C=C/CN5CCC[C@@]5(C)C(C)O)c(F)c4)cc(c12)CCO3 (single isomer, unassigned) [Example 259] | 14.2 |  |  |
| Cc1nc2c3c(c(C(F)(F)F)cc2n1C)-c1cccn2c(C(=O)c4cc(F)c(NC(=O)/C=C/CNC5CCOC5)c(F)c4)cc(c12)CCO3 (single isomer, unassigned) [Example 269, (E)-N-(4-(9,10-dimethyl-7-(trifluoromethyl)-13,14-dihydro-9H-imidazo-[4″,5″:5′,6′]benzo[1′,2′: 2,3]oxocino[4,5,6-hi]-indolizine-2-carbonyl)-2,6-difluorophenyl)-4-((tetrahydrofuran-3-yl)-amino)but-2-enamide] | 9.82 |  |  |
| Cc1nc2c3c(c(C(F)(F)F)cc2n1C)-c1cccn2c(C(=O)c4cc(F)c(NC(=O)/C=C/CNC5CCOC5)c(F)c4)cc(c12)CCO3 (single isomer, unassigned) [Example 270, (E)-N-(4-(9,10-dimethyl-7-(trifluoromethyl)-13,14-dihydro-9H-imidazo-[4″,5″:5′,6′]benzo[1′,2′: 2,3]oxocino[4,5,6-hi]-indolizine-2-carbonyl)-2,6-difluorophenyl)-4-((tetrahydrofuran-3-yl)-amino)but-2-enamide] | 12 |  |  |
| CC1Cc2cc(C(=O)c3cc(F)c(NC(=O)/C=C/CN[C@H]4CCOC4)c(F)c3)n3cccc(c23)-c2c(C(F)(F)F)cc3c(ncn3C)c2O1 (single isomer, unassigned) [Example 271] | 13.6 |  |  |
| Cc1nc2c3c(c(C(F)(F)F)cc2n1C)-c1cccn2c(C(=O)c4cc(F)c(NC(=O)/C=C/CNC5(C)COC5)c(F)c4)cc(c12)CC(C)O3 (single isomer, unassigned) [Example 272, mono((E)-2-(3,5-difluoro-4-(4-((3-methyloxetan-3-yl)ammonio)but-2-en-amido)benzoyl)-9,10,13-trimethyl-7-(trifluoro-methyl)-13,14-dihydro-9H-imidazo[4″,5″:5′,6′]-benzo[1′,2′:2,3]oxocino-[4,5,6-hi]indolizin-11-ium) mono(2,2,2-trifluoroacetate)] | 14.9 |  |  |
| Cc1nc2c3c(c(C(F)(F)F)cc2n1C)-c1cccn2c(C(=O)c4cc(F)c(NC(=O)/C=C/CNC5(C)COC5)c(F)c4)cc(c12)CC(C)O3 (single isomer, unassigned) [Example 273, mono((E)-2-(3,5-difluoro-4-(4-((3-methyloxetan-3-yl)ammonio)but-2-en-amido)benzoyl)-9,10,13-trimethyl-7-(trifluorometh-yl)-13,14-dihydro-9H-imidazo[4″,5″:5′,6′]benzo-[1′,2′:2,3]oxocino[4,5,6-hi]indolizin-11-ium) mono(2,2,2-trifluoro-acetate)] | 30.1 |  |  |
| COCCn1c(C)nc2c3c(c(OC)cc21)-c1cccn2c(C(=O)c4cc(F)c(NC(=O)/C=C/CNC5(C)CC5)c(F)c4)cc(c12)CC[S+]3[O-] (stereo not drawn) [Example 241] |  | 31 | IC50 (MIA PaCa-2 cells; [3]): 877 nM |
| COCCn1c(COC)[n+]([O-])c2c3c(c(OC)cc21)-c1cccn2c(C(=O)c4cc(F)c(NC(=O)/C=C/CNC5(C)CC5)c(F)c4)cc(c12)CCN3C [Example 243, (E)-2-(3,5-difluoro-4-(4-((1-methylcyclopropyl)-amino)but-2-enamido)-benzoyl)-7-methoxy-9-(2-methoxyethyl)-10-(methoxymethyl)-12-methyl-9,12,13,14-tetra-hydroimidazo[4″,5″:5′,6′]-benzo[1′,2′:2,3]azocino-[4,5,6-hi]indolizine 11-oxide] |  | 83.2 | IC50 (MIA PaCa-2 cells; [3]): 91.8 nM |
| COc1cc2c(nc(C)n2C)c2c1-c1cccn3c(C(=O)c4cc(F)c(NC(=O)/C=C/CNC5(C)CCCC5)c(F)c4)cc(c13)CCN2C [Example 245, (E)-N-(2,6-difluoro-4-(7-methoxy-9,10,12-trimeth-yl-9,12,13,14-tetrahydro-imidazo[4″,5″:5′,6′]benzo-[1′,2′:2,3]azocino[4,5,6-hi]indolizine-2-carbonyl)-phenyl)-4-((1-methyl-cyclopentyl)amino)but-2-enamide] |  | 33.1 | IC50 (MIA PaCa-2 cells; [3]): 25.4 nM |
| COCCn1c(C)nc2c3c(c(OC)cc21)-c1cccn2c(C(=O)c4cc(F)c(NC(=O)/C=C/CNC5(C)CCCC5)c(F)c4)cc(c12)CCO3 [Example 246, (E)-N-(2,6-difluoro-4-(7-methoxy-9-(2-methoxyethyl)-10-methyl-13,14-dihydro-9H-imidazo[4″,5″:5′,6′]benzo[1′,2′:2,3]oxocino[4,5,6-hi]indolizine-2-carbonyl)phenyl)-4-((1-methylcyclopentyl)amino)but-2-enamide] |  | 13.6 | IC50 (MIA PaCa-2 cells; [3]): 17.2 nM |
| CN1CCc2cc(C(=O)c3cc(F)c(NC(=O)/C=C/CNC4(C)CSC4)c(F)c3)n3cccc(c23)-c2c(C(F)(F)F)cc3c(ncn3C)c21 [Example 249] |  | 27.5 | IC50 (MIA PaCa-2 cells; [3]): 28.6 nM |
| (E)-N-(2,6-difluoro-4-(10-(methoxymethyl)-9,13-dimethyl-12-oxo-7-(trifluoromethyl)-9,12,13,14-tetrahydroimidazo[4″,5″:3′,4′]benzo[1′,2′:6,7]azocino[5,4,3-hi]indolizine-2-carbonyl)phenyl)-4-((3-methyloxetan-3-yl)amino)but-2-enamide [Example 152] |  | 89.3 | IC50 (MIA PaCa-2 cells; Table 3-1): 927 nM |
| (E)-N-(2,6-difluoro-4-((S)-6,8,9,12-tetramethyl-12,13-dihydro-8H-imidazo[4″,5″:3′,4′]benzo[1′,2′:7,8][1,4]oxazocino[6,5,4-hi]indole-2-carbonyl)pheny 1)-4-(((1,4r)-4-methoxycyclohexyl)amino)but-2-enamide [Example 20] |  |  | IC50 ([2]; Table 2): 24 nM; IC50 (MIA PaCa-2 cells; Table 3): 49 nM |
